Measured values published in publication PMC4348493, “CD47 Agonist Peptides Induce Programmed Cell Death in Refractory Chronic Lymphocytic Leukemia B Cells via PLCγ1 Activation: Evidence from Mice and Humans” (PLoS Medicine, 2015).
Entries after “also recorded” stand apart in the source; their conditions may differ. Ends that are not written are not given here.

Key:
[1] = tested on: CLL B lymphocytes (CD19+/CD5+); conditions: for Effect of pre-incubation on PKHB1-mediated cell death in CLL cells: added 30 min before PKHB1 200 μM, BAPTA 5 mM, BAPTA-AM 20 μM, 2-APB 60 μM, dantrolene 40 μM, U73122 200 nM, hSIRPα-Fc 15 μg/ml; for Cytotoxicity / PCD in CLL cells (Annexin-V and PI co-positivity): 200-μM peptides, 2 h of treatment (Fig 1D, 1E)
Experimental: (§1) Mononuclear cells were purified from blood samples using a standard Ficoll-Hypaque gradient, and B cells were positively or negatively selected by magnetic microbeads coupled either to an anti-CD19 monoclonal antibody (positive selection) or to anti-CD16,-CD3, and-CD14 monoclonal antibodies (negative depletion) (Miltenyi Biotech). […] B lymphocytes, MEC-1, and M210B4 bone marrow stromal cells (ATCC) were cultured in complete medium (RPMI 1640 supplemented with 10% fetal calf serum, 2 mM L-glutamine, and 100 U/ml penicillin-streptomycin). In selected experiments, CLL cells were cultured in Ca^2+-free medium (RPMI 1640 without calcium, supplemented with dialyzed 10% fetal calf serum) prior to the induction of cell death.
(§2) Annexin-V-APC (0.1 μg/ml; BD Biosciences) was used for the assessment of phosphatidylserine exposure, propidium iodide (PI, 0.5 μg/ml) for cell viability analysis, and tetramethylrhodamine ethyl ester (TMRE, 20 nM) for mitochondrial transmembrane potential (ΔΨm) quantification. PCD was recorded in a FACSCanto II (BD Biosciences) in the total population (10,000 cells), and data were analyzed using FlowJo software. Chymotrypsin-like serine protease (serpase) or caspase cytofluorometric detection was performed with SerPase or Caspase activity kits from Imgenex (IMI-2301 and IMI-2315). Residual and leukemic B cells from CLL patients were discriminated from the mononuclear blood fraction by double labeling with anti-CD19 PerCP-Cyc5.5 (clone SJ25C1; BD Biosciences) and anti-CD5-PE-Cy7 mAb (clone L17F12; BD Biosciences). T cells from CLL patients were identified by a double anti-CD19 PerCP-Cyc5.5 and anti-CD3-PE-Cy7 (clone SK7; BD Biosciences) staining. Calreticulin cell surface exposure was recorded with anti-calreticulin-PE (clone FMC75; Assay Designs). […] A QuantiBRITE flow cytometry system (BD Biosciences) was used to assess the number of CD47 molecules expressed on normal and CLL B lymphocytes.
To induce PCD, 1 × 10^6 cells/ml were treated for 2 h with PKHB1 (200 μM), 4N1K (300 μM), 4NGG (300 μM), or an anti-CD47 monoclonal antibody ([…], clone B6H12 in soluble or immobilized conditions). To provide pro-survival microenvironment signals, CLL cells were pre-incubated with sCD40L (5 μg/ml) and IL-4 (20 ng/ml) or co-cultured with the M210B4 bone marrow stromal cell line (ATCC) before death was induced. To control for caspase-dependent apoptosis, cells were incubated for 12 h with etoposide (250 μM). For the inhibition assays, BAPTA-AM (20 μM); BAPTA (5 mM); Ru360 (750 nM); dantrolene (40 μM); 2-aminoethoxydiphenyl borate (2-APB, 60 μM); U73122 (200 nM); the broad spectrum caspase inhibitors Q-VD-OPh (QVD, 10 μM) and z-VAD-FMK (50 μM); the specific caspase inhibitors z-DEVD-FMK (50 μM, caspase-3/7), z-LEHD-FMK (50 μM, […]), and z-IETD-FMK (50 μM, […]); the serpase inhibitor TPCK (20 μM); or the fusion protein hSIRPα-Fc (15 μg/ml) was added 30 min before inducing PCD.

[2] = Peptide degradation assay in human serum (HPLC); format: in vitro ADME; conditions: peptide 10 mg/ml in 1:4 human serum/RPMI 1640, 37°C, absorbance 220 nm
Experimental: 4N1K or PKHB1 (10 mg/ml), diluted in a 1:4 human serum/RPMI 1640 mixture, was incubated at 37°C for different lengths of time, then mixed with ethanol and 5 ml of 1 M NaOH and incubated at 4°C for at least 15 min to precipitate serum proteins. The supernatant was collected and injected in an HPLC system, and the soluble peptide was eluted by a linear gradient of 5% to 50% ACN (0.1% [v/v] TFA in acetonitrile) in aqueous 0.1% (v/v) TFA. The concentration of the peptide was calculated by the integration of the absorbance at 220 nm as a function of the retention time.

[3] = tested on: CLL cells; assay: Caspase activity (FAM caspase detection kit) in CLL cells; format: cell-based, human; conditions: PKHB1 200 μM, 2 h; etoposide 250 μM, 12 h; representative CLL donor (Fig 2G)
[4] = tested on: MEC-1 cells; assay: Cell death by Annexin-V/PI in MEC-1 cells; format: cell-based, human; conditions: PKHB1 200 μM, 2 h; etoposide 250 μM, 12 h (S7, S8 Figs)
Experimental: as §1
Annexin-V-APC (0.1 μg/ml; BD Biosciences) was used for the assessment of phosphatidylserine exposure, propidium iodide (PI, 0.5 μg/ml) for cell viability analysis, and tetramethylrhodamine ethyl ester (TMRE, 20 nM) for mitochondrial transmembrane potential (ΔΨm) quantification. PCD was recorded in a FACSCanto II (BD Biosciences) in the total population (10,000 cells), and data were analyzed using FlowJo software. […] Calreticulin cell surface exposure was recorded with anti-calreticulin-PE (clone FMC75; Assay Designs). […]

[5] = tested on: MEC-1 tumors; assay: CLL-xenograft model: MEC-1 tumors in NSG mice; format: in vivo, mouse (NOD/scid gamma); conditions: weekly intraperitoneal injection; n = 8 per group (Fig 7C)
Experimental: In the CLL-xenograft model, MEC-1 cells (3 × 10^6) were injected subcutaneously into NOD/scid gamma (NSG) mice. When the tumor volume reached 100 mm^3, mice received intraperitoneal injections of PBS, PKHB1, or 4N1K (200 μg in 200 μl of PBS) once a week. Tumor size was measured with a caliper, and tumor volume was calculated using the formula (length × width^2)/2 and expressed in cubic millimeters. Alternatively, at 28 d after the engraftment, XenoLight RediJect 2-DG 750 Probe (Caliper) was injected into the retro-orbital sinus to visualize tumor glucose uptake, which reflects cell proliferation. Fluorescence was measured using an in vivo imaging system FX Pro (Kodak), and pictures were analyzed with Carestream Molecular Imaging software.
To determine hemoglobin levels, tumors were excised from euthanized mice, weighed, and homogenized in PBS. After centrifugation, formic acid was added to the supernatant, and the hemoglobin concentration was calculated based on the absorbance at 405 nm.
To assess PCD, calreticulin exposure, and PLCγ1-Y783, dissociated tumors were digested in medium containing Liberase-TL (Roche), DNase-I (Calbiochem), and Collagenase-IV (Life Technologies). Single-cell suspension, obtained by filtering through a […] cell strainer, was analyzed by flow cytometry.

[6] = tested on: CD19-/CD3+ T cells; assay: Cell death by Annexin-V/PI in T cells of CLL patients; format: cell-based, human; conditions: 200 μM, 2 h; n = 8 (Fig 1G)
Experimental: as §2, with “lymphocytes. […]” for “lymphocytes.”

[7] = tested on: CD19+/CD5- B cells (residual B cells); assay: Cell death by Annexin-V/PI in residual B cells of CLL patients; format: cell-based, human; conditions: 200 μM, 2 h; n = 20 (Fig 1G)
Experimental: as §2, with “lymphocytes. […]” for “lymphocytes.”

[8] = Mice toxicity studies (hematology, kidney and liver histology); format: in vivo, mouse (NSG; conditions: weekly intraperitoneal injection, 10 mg/kg, 3 wk, NSG or C57BL/6 mice (S9 Fig)
Experimental: In mice toxicity studies, we used the same injection protocol as in xenografted NSG mice. The hematological parameters were monitored in blood drawn from the retro-orbital plexus from either vehicle- (PBS) or PKHB1-treated wild-type mice (C57BL/6) with an MS9–5 analyzer (Melet Schloesing). Kidneys and livers (24 h after the third injection of PBS or PKHB1) were fixed and embedded in paraffin. Paraffin sections ([…] thick) of kidney and liver were deparaffinized and rehydrated before staining with periodic acid—Schiff and hematoxylin-eosin, respectively.

[9] = target: CD47 (Homo sapiens, UniProt Q08722); assay: Binding to CD47 (fluorescence polarization, isothermal titration calorimetry, microscale thermophoresis); conditions: isothermal titration calorimetry and microscale thermophoresis binding assays (methods per ref 82), read-out: Dissociation constant (Kd) to CD47
Chain of CD47 (Homo sapiens, UniProt Q08722) (Q08722 19-323): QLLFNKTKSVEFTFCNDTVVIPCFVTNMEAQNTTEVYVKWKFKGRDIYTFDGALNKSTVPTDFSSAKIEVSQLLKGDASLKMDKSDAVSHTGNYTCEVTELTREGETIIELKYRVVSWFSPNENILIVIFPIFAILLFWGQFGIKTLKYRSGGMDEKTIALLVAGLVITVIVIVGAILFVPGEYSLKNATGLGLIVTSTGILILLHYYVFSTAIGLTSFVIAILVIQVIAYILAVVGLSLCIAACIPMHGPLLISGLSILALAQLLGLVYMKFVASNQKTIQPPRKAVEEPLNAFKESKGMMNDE
Excerpt: Supplementary file pmed.1001796.s002.tif: S2 Fig Primary structure of 4NGG, 4N1K, and PKHB1. In 4NGG, the two central valines of 4N1K were replaced by glycines (highlighted in red). In PKHB1, the N- and C-terminal lysines of 4N1K were replaced with their D counterparts (highlighted in green). […] (TIF) Click here for additional data file.

[10] = target: T1, CD47 (UniProt Q08722 19-323); assay: fluorescence polarisation + ITC + MST; not told; one Kd is printed for each peptide for the three methods together; the legend refers to ref. 82
T1 construct: CD47; in the cell death assays it is the endogenous CD47 on human CLL B cells; the CD47 preparation is not described; also called cell surface receptor CD47
T1 sequence (Q08722 19-323): as above

## NCCOB(c1ccccc1)c1ccccc1 [2-APB, 2-aminoethoxydiphenyl borate]
[1]; 2 h
  Effect of pre-incubation on PKHB1-mediated cell death in CLL cells: significantly decreased

## CSCC[C@H](NC(=O)[C@@H](NC(=O)[C@@H](NC(=O)[C@H](Cc1ccc(O)cc1)NC(=O)[C@H](Cc1ccccc1)NC(=O)[C@H](CCCNC(=N)N)NC(=O)[C@@H](N)CCCCN)C(C)C)C(C)C)C(=O)N[C@@H](Cc1c[nH]c2ccccc12)C(=O)N[C@@H](CCCCN)C(=O)N[C@@H](CCCCN)C(=O)O [4N1K]
[2]; human serum diluted 1:4 in RPMI 1640, 1-h incubation, serum proteins precipitated with ethanol/NaOH, read-out: Peptide degraded in human serum
  metabolised at 1 h, 10 mg/ml: > 90%
[1]
  Cytotoxicity / PCD in CLL cells (Annexin-V and PI co-positivity): ~ 25%

## COc1ccc2c(c1)CC[C@@H]1[C@@H]2CC[C@]2(C)[C@@H](NCCCCCCN3C(=O)C=CC3=O)CC[C@@H]12 [U73122]
[1]; 2 h
  Effect of pre-incubation on PKHB1-mediated cell death in CLL cells: significantly decreased PCD

## O=C1CN(/N=C/c2ccc(-c3ccc([N+](=O)[O-])cc3)o2)C(O)=N1 [dantrolene]
[1]; 2 h
  Effect of pre-incubation on PKHB1-mediated cell death in CLL cells: significantly decreased

## COc1cc([C@@H]2c3cc4c(cc3[C@@H](O[C@@H]3O[C@@H]5CO[C@@H](C)O[C@H]5[C@H](O)[C@H]3O)[C@H]3COC(=O)[C@H]23)OCO4)cc(OC)c1O [etoposide]
[3]
  Activated caspases, positive cells: ~ 47%
[4]
  Cell death response of MEC-1 cells (dysfunctional TP53): resistant to etoposide treatment
[1]; PKHB1 200 μM, 2 h, etoposide 250 μM, 12 h, n = 8 patients (Fig 2B)
  Cell death response with microenvironment survival signals (sCD40L + IL-4 or M210B4 bone marrow stromal cells): significantly diminished

## O=C(O)CN(CC(=O)O)c1ccccc1OCCOc1ccccc1N(CC(=O)O)CC(=O)O [BAPTA]
[1]; 2 h
  Effect of pre-incubation on PKHB1-mediated cell death in CLL cells: abolished

## CC(=O)OCOC(=O)CN(CC(=O)OCOC(C)=O)c1ccccc1OCCOc1ccccc1N(CC(=O)OCOC(C)=O)CC(=O)OCOC(C)=O [BAPTA-AM]
[1]; 2 h
  Effect of pre-incubation on PKHB1-mediated cell death in CLL cells: significantly decreased

## CSCC[C@H](NC(=O)[C@@H](NC(=O)[C@@H](NC(=O)[C@H](Cc1ccc(O)cc1)NC(=O)[C@H](Cc1ccccc1)NC(=O)[C@H](CCCNC(=N)N)NC(=O)[C@H](N)CCCCN)C(C)C)C(C)C)C(=O)N[C@@H](Cc1c[nH]c2ccccc12)C(=O)N[C@@H](CCCCN)C(=O)N[C@H](CCCCN)C(=O)O [PKHB1]
[5]
  Anemia (hemoglobin levels within the engrafted tumors): did not provoke anemia
[2]; long-term incubation
  Degradation during long-term incubation in human serum: not degraded
[6]
  Cytotoxicity in T cells of CLL patients: ~ 10%
[1]
  Cytotoxicity / PCD in CLL cells (Annexin-V and PI co-positivity): ~ 49%
[7]
  Cytotoxicity in residual CD5- B lymphocytes of CLL patients: ~ 5%
[8]
  Blood, liver, kidney toxicity: no toxic effect; also recorded: No blood, liver, or kidney toxicity

## KRFYGGMWKK [4NGG]
[9]
  Kd: 1000 µM

B1: 4N1K (peptide)
peptide: KRFYVVMWKK
notes: N-terminal lysine introduced to improve solubility, not part of thrombospondin-1; stretch of the C-terminal domain of thrombospondin-1 (TSP1); C-terminal lysine introduced to improve solubility, not part of thrombospondin-1; also called K-R-F-Y-V-V-M-W-K-K; TSP1-derived decapeptide; source: synthetic peptide (solid-phase synthesis, purified by reverse phase HPLC, purity greater than 95%)
[10]
  Kd: 1.5 µM

B2: PKHB1 (peptide)
peptide: KRFYVVMWKK
modifications: D-lysine at the N-terminus and D-lysine at the C-terminus (printed as lower-case k)
notes: N-terminal lysine, not part of thrombospondin-1 (introduced in 4N1K to improve solubility); here the D analogue; stretch of the C-terminal domain of thrombospondin-1 (TSP1); C-terminal lysine, not part of thrombospondin-1 (introduced in 4N1K to improve solubility); 4N1K with its N- and C-terminal lysines replaced by their D counterparts; also called k-R-F-Y-V-V-M-W-K-k; source: synthetic peptide …
[10]
  Kd: 0.4 µM
